Reference: ChEMBL document CHEMBL1201862, “PubChem BioAssay data set” (2004)
Several values for one entry are separate records, joined by “and”; a condition that tells them apart may be missing. Equal values may be shown once.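 A five-concentration, 48-hour dose response in 96-well plates underlies each endpoint, interpolated linearly between surrounding concentrations. GI50 marks 50% less growth.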 Activity calls are given as the source filed them. Cut-off read from the data, not from the text of the source: active = GI50 up to about 1.1 µM and inactive = higher.

Legend:
Assay in all cases: NCI-60 cell line screen, 48 h
[1] = system: SK-OV-3
[2] = system: LOX IMVI
[3] = system: A498
[4] = system: OVCAR-5
[5] = system: SW-620
[6] = system: SNB-75
[7] = system: KM12
[8] = system: HOP-62
[9] = system: OVCAR-8
[10] = system: RPMI-8226
[11] = system: EKVX
[12] = system: 786-0
[13] = system: SNB-19
[14] = system: SK-MEL-5
[15] = system: HCT-116
[16] = system: HOP-92
[17] = system: DU-145
[18] = system: NCI/ADR-RES
[19] = system: MDA-MB-435

Measured: GI50

COC(=O)CCC1CCc2c(OC)ccc(OC)c2C1=O (stereo unspecified)
inactive: [1] > 100 µM | [2] > 100 µM | [3] > 10 µM | [4] > 100 µM | [5] > 100 µM | [6] > 100 µM | [7] > 100 µM | [8] > 100 µM | [9] > 100 µM | [10] > 100 µM | [11] > 100 µM | [12] > 100 µM | [13] > 100 µM | [14] > 100 µM

CSC1CC2C(CC1(C)O)C2(C)C (stereo unspecified)
inactive: [1] > 100 µM | [2] 95.5 µM | [3] > 100 µM | [4] > 100 µM | [5] > 100 µM | [15] > 100 µM | [7] > 100 µM | [8] > 100 µM | [9] > 100 µM | [10] > 100 µM | [12] > 100 µM | [13] > 100 µM | [14] > 100 µM and 53.8 µM

Cc1nc2ccccc2c(=O)n1NC(=S)Nc1cccc(Cl)c1
inactive: [1] > 100 µM | [16] > 100 µM | [2] 65.5 µM | [3] > 100 µM | [4] > 100 µM | [5] > 100 µM | [15] > 100 µM | [6] 72.9 µM | [7] > 100 µM | [8] > 100 µM | [9] > 100 µM | [10] > 100 µM | [12] > 100 µM | [14] > 100 µM

[N-]=[N+]=NC1C2CC3CC(C2)CC1C3 (stereo unspecified)
inactive: [1] > 100 µM | [16] > 100 µM | [2] > 100 µM | [3] > 100 µM | [4] > 100 µM | [5] > 100 µM | [15] > 100 µM | [6] > 100 µM | [7] > 100 µM | [8] > 100 µM | [9] > 100 µM | [10] > 100 µM | [11] > 100 µM | [12] > 100 µM | [13] > 100 µM | [14] > 100 µM

O=C(Nc1ccc(S(=O)(=O)N[C@@H](C(=O)O)c2ccccc2)cc1)c1ccc(F)cc1
inactive: [1] > 100 µM | [16] > 100 µM | [2] > 100 µM | [3] > 100 µM | [4] > 100 µM | [5] > 100 µM | [6] > 100 µM | [7] > 100 µM | [9] > 100 µM | [10] > 100 µM | [11] > 100 µM | [12] > 100 µM | [13] > 100 µM | [14] > 100 µM

COc1cc([C@@H]2c3cc4c(cc3[C@@H](NC(=O)c3cccc([N+](=O)[O-])c3)C3COC(=O)[C@@H]32)OCO4)cc(OC)c1O (stereo partly specified)
inactive: [4] 2.23 µM | [15] 1.5 µM | [6] 1.31 µM | [7] 1.47 µM | [11] 1.25 µM
active: [1] 0.329 µM | [16] 0.63 µM | [2] 0.295 µM | [5] 0.509 µM | [8] 0.0398 µM | [9] 0.721 µM | [10] 0.452 µM | [12] 0.202 µM | [13] 0.366 µM | [14] 0.452 µM

O=C(ON=c1c2ccccc2ccc2ccccc12)c1ccccc1
inactive: [1] 56 µM | [16] 26.2 µM | [2] 18.4 µM | [3] 22.1 µM | [4] 60.8 µM | [5] 18.1 µM | [15] 13.9 µM | [17] 42.2 µM | [18] 21.2 µM | [6] 26.5 µM | [19] 20.7 µM | [7] 11.8 µM | [8] 22 µM | [9] 27.4 µM | [10] 24.4 µM | [11] 35.7 µM | [12] 23.6 µM | [13] 26.1 µM | [14] 16.2 µM

CC(=O)OC12c3ccccc3C(c3ccccc31)C1C(=O)N(c3ccccn3)C(=O)C12 (stereo unspecified)
inactive: [1] > 100 µM | [2] > 100 µM | [4] > 100 µM | [5] > 100 µM | [15] 54.7 µM | [17] > 100 µM | [18] 55.2 µM | [6] 23.8 µM | [7] 50.1 µM | [8] 65.6 µM | [9] > 100 µM | [10] 27.1 µM | [11] > 100 µM | [12] > 100 µM | [13] 14.7 µM | [14] 27.9 µM

O/N=C/c1cc2c(cc1Br)OCO2
inactive: [1] > 100 µM | [2] > 100 µM | [3] > 100 µM | [4] > 100 µM | [5] > 100 µM | [15] > 100 µM | [6] > 100 µM | [7] > 100 µM | [8] > 100 µM | [9] > 100 µM | [10] > 100 µM | [11] > 100 µM | [12] > 100 µM | [13] > 100 µM | [14] > 100 µM

Cc1ccccc1C(C#N)/C(=N/NC(N)=S)C(=O)Nc1c(C)cccc1C (stereo unspecified)
inactive: [16] > 100 µM | [2] > 100 µM | [4] > 100 µM | [5] > 100 µM | [15] > 100 µM | [6] > 100 µM | [7] > 100 µM | [8] > 100 µM | [9] > 100 µM | [10] 9.12 µM | [11] > 100 µM | [12] > 100 µM | [13] > 100 µM | [14] 46.3 µM

C[C@]12CCC(=O)C=C1CC[C@@H]1C2CC[C@@]2(C)C1CC[C@@H]2OC(=O)C12OC1CCC2=O (stereo partly specified)
inactive: [1] 41.7 µM | [16] 19.8 µM | [2] 16 µM | [3] 18 µM | [4] 17.9 µM | [5] 16.9 µM | [15] 15.7 µM | [6] 16.7 µM | [7] 18.7 µM | [8] 30.7 µM | [9] 17.9 µM | [10] 20.9 µM | [11] 15.5 µM | [12] 16.5 µM | [13] 19.6 µM | [14] 16.2 µM

CC(c1ccccc1)N1CC(C)(c2ccccc2)N(O)C(c2ccccc2)C1C (stereo unspecified)
inactive: [1] 22.8 µM | [16] 2.21 µM | [2] 12.2 µM | [3] 18 µM | [4] 16.9 µM | [5] 12.1 µM | [15] 3.38 µM | [6] 6.03 µM | [7] 8 µM | [8] 15.5 µM | [9] 9.91 µM | [10] 3.75 µM | [11] 13.5 µM | [12] 5.92 µM | [13] 5.92 µM | [14] 7.82 µM

Clc1ccc(OCCSCCCCCCCCCCSCCOc2ccc(Cl)cc2)cc1
inactive: [1] > 100 µM | [16] > 100 µM | [2] > 100 µM | [3] > 100 µM | [4] > 100 µM | [5] > 100 µM | [6] > 100 µM | [7] > 100 µM | [8] > 100 µM | [9] > 100 µM | [10] > 100 µM | [11] > 100 µM | [12] > 100 µM | [13] > 100 µM | [14] > 100 µM

CN(C)c1ccc(-c2[nH]c(=O)c3ccccc3[n+]2C)cc1
inactive: [1] > 100 µM | [16] 60.7 µM | [3] 99.1 µM | [4] 44.2 µM | [5] > 100 µM | [15] 93.8 µM | [17] > 100 µM | [18] 39.1 µM | [6] > 100 µM | [19] 63.8 µM | [7] 55.5 µM | [8] > 100 µM | [9] > 100 µM | [10] 63.2 µM | [11] 88.9 µM | [12] > 100 µM | [13] > 100 µM | [14] 36.6 µM

CN1CCCC2[C@@H]3CCC4=C(O)C(=O)CC[C@]4(C)C3CC[C@@]21C (stereo partly specified)
inactive: [1] > 100 µM | [16] > 100 µM | [2] > 100 µM | [3] > 100 µM | [4] > 100 µM | [5] > 100 µM | [15] > 100 µM | [6] > 100 µM | [7] > 100 µM | [8] > 100 µM | [9] > 100 µM | [10] > 100 µM | [11] > 100 µM | [12] > 100 µM | [13] > 100 µM | [14] > 100 µM

COC(=O)C(C(=O)C(=O)Nc1cccc(O)c1)c1nc2ccc(Cl)cc2nc1O (stereo unspecified)
inactive: [1] > 100 µM | [16] 59 µM | [2] > 100 µM | [3] > 100 µM | [4] > 100 µM | [5] > 100 µM | [15] > 100 µM | [6] 84.1 µM | [7] > 100 µM | [8] > 100 µM | [9] > 100 µM | [10] > 100 µM | [11] 48.9 µM | [12] > 100 µM | [13] > 100 µM | [14] > 100 µM

O=S(=O)(O)C1=C2Sc3ccccc3N=C2c2ccccc2C1
inactive: [1] 29.2 µM | [16] 10.3 µM | [2] 12.4 µM | [3] 18.6 µM | [4] 20.2 µM | [5] 15.3 µM | [15] 15.2 µM | [6] 18.5 µM | [7] 15.8 µM | [8] 20.1 µM | [9] 16.9 µM | [10] 7.48 µM | [11] 13.8 µM | [12] 17.5 µM | [13] 22.4 µM | [14] 13.2 µM

c1ccc(C2[C@@H]3CCCc4ccccc4C3=NN2c2ccccc2)cc1 (stereo partly specified)
inactive: [2] 40.8 µM | [3] > 100 µM | [4] > 100 µM | [5] > 100 µM | [15] 42 µM | [7] > 100 µM | [8] > 100 µM | [9] > 100 µM | [10] 40.7 µM | [11] 46.8 µM | [12] > 100 µM | [13] > 100 µM | [14] 18.8 µM
